Measurements from publication PMC6468543, “Rational Design, Synthesis and Preliminary Evaluation of Novel Fusarinine C-Based Chelators for Radiolabeling with Zirconium-89” (Biomolecules, 2019).
Entries after “also recorded” stand apart in the source; their conditions may differ. Where two headings read alike, the source gives them in different places.

How the values were obtained:
[1] = Stability assay in human serum; type: in vitro ADME; settings: 37 °C, incubation time 7 days
Experimental: (§1) Determination of the stability of [^89Zr]Zr-DFO, [^89Zr]Zr-TAFC, [^89Zr]Zr-FSC(succ)2AA and [^89Zr]Zr-FSC(succ)3 was carried out by incubating the radioligands in PBS, a 1000-fold molar excess of ethylenediaminetetraacetic acid (EDTA) solution (radioligand vs. […] Then, the precipitate was washed three times using CH3CN before analysis.

[2] = Acid dissociation study in 1000-fold molar excess of EDTA solution; type: physicochemical
Experimental: as §1

[3] = Transchelation study: 89Zr-FSC derivative complexes with 1000-fold molar excess of DFO; type: physicochemical; settings: RT, after 7 days
Experimental: (§2) [^89Zr]Zr-DFO (50 µL) was mixed with a 1000-fold molar excess of either FSC(succ)2AA or FSC(succ)3 and [^89Zr]Zr-TAFC (or [^89Zr]Zr-FSC(succ)2AA, [^89Zr]Zr-FSC(succ)3) (50 µL each) was mixed with a 1000-fold molar excess of DFO and incubated for seven days at RT. At selected time points, aliquots of the solutions were analyzed in triplicate directly via analytical RP-HPLC. The transchelation was determined by the ratio of [^89Zr]Zr-DFO and [^89Zr]Zr-FSC derivatives.

[4] = Distribution coefficient (logD), octanol/PBS; type: physicochemical; settings: n = 5
Experimental: A volume of 500 µL PBS including 0.5 MBq radioligand ([^89Zr]Zr-FSC(succ)2AA or [^89Zr]Zr-FSC(succ)3) was combined with 500 µL octanol. The mixture was vortexed for 15 min, and centrifuged for 2 min at 2000 rcf. Subsequently, 50 µL aliquots of the aqueous and the octanol layer were collected, measured in a 2480 Wizard^2 Automatic Gamma Counter (Perkin Elmer, Vienna, Austria), and distribution coefficient (logD) values were calculated using Excel 2013 (n = 5) (Redmond, WA, USA).

[5] = Protein binding assay in fresh human serum (size exclusion spin column); type: in vitro ADME; settings: 37 °C, incubation time 7 days
Experimental: The protein binding property was evaluated by incubating [^89Zr]Zr-FSC(succ)2AA or [^89Zr]Zr-FSC(succ)3 for seven days at 37 °C in fresh human serum. Subsequently, 30 µL of the solution was passed through a size exclusion spin column (MicroSpinG-50 column, GE Healthcare, Buckinghamshire, UK) via centrifugation at 2000 rcf for 2 min. Protein binding of the complexes in triplicate was determined by measuring the activity on the column (non-protein bound) and the activity in the eluate (protein bound) in the gamma counter.

[6] = MicroPET/CT imaging, image-based quantitation of bone uptake (knee); type: in vivo, BALB/c mice; settings: BALB/c mouse, i.v., 24 h p.i., mean of left and right knees, n = 1
Experimental: Micro-Positron Emission Tomography/computer tomography (MicroPET/CT) imaging studies were carried out using an Inveon microPET/CT scanner (Siemens Preclinical Solutions, Knoxville, TN, USA). Healthy female BALB/c mice were injected intravenously with 5 MBq of either [^89Zr]Zr-FSC(succ)3 (16 µg, n = 1) or [^89Zr]Zr-TAFC (13 µg, n = 1). MicroPET/CT images were acquired under general anesthesia (isoflurane/O2) for 20 min. Imaging data were recorded via static scans at 80 min and 24 h p.i. The microPET/CT scans were reconstructed and merged with OSEM3D-SPMAP (PET, matrix size 256 × 256) and Feldkamp (CT, Shepp Logan filter). For evaluation of bone uptake, image-based quantitation was carried out by selecting volumes of interest around each knee region and % ID/cm^3 were calculated for both time points (VivoQuant image analysis software, Invicro LLC, Boston, MA, USA) and expressed as mean values of left and right knees to compare both compounds.

[7] = Biodistribution study in BALB/c mice; type: in vivo; settings: i.v., 6 h p.i., n = 4
Experimental: For the evaluation of biodistribution, four female BALB/c mice (Charles River Laboratories, Sulzfeld, Germany) were intravenously injected with [^89Zr]Zr-FSC(succ)3 (1.5 MBq/mouse, 4.8 µg precursor) or [^89Zr]Zr-TAFC (1.5 MBq/mouse, 4 µg) into the tail vein and sacrificed by cervical dislocation at 6 h post injection (p.i.). Organs (spleen, pancreas, stomach, intestine, kidney, liver, heart, and lung), blood, muscle tissue, and bone were dissected, weighed and then measured in the gamma counter to calculate the percentage of injected dose per gram of tissue (% ID/g). Statistical analysis was performed using an independent two-population t-test (significance level p = 0.05) and Origin 6.1 software (Northampton, MA, USA).

Solubility in water = type: physicochemical; settings: unlabeled chelator
[8] = parameters: method as in PMID 25941834; settings: previously reported data; cited from earlier work
[9] = Transchelation study: [89Zr]Zr-DFO with 1000-fold molar excess of FSC(succ)2AA or FSC(succ)3; type: physicochemical; settings: 1000-fold molar excess of FSC(succ)2AA or FSC(succ)3, RT, within 1 h
Experimental: as §2

[10] = parameters: method as in PMID 25941834; settings: human serum, incubation time 7 days, previously reported data; cited from earlier work
[11] = parameters: method as in PMID 25941834; settings: incubation time 7 days, previously reported data; cited from earlier work

Stability in Human Serum (%) [1] | intact complex ([2]; pH 6, 37 °C) | resistance to transchelation ([2]; pH 7, over seven days, 37 °C) | intact complex [3] | Log D [4] | Protein Binding (%) [5] | intact complex ([2]; pH 4, day 7, 37 °C) | bone uptake in the knee [6] | activity in blood [7] | solubility in water (Solubility in water) | Compound | Log D [8] | Protein Binding (%) [10] | Stability in Human Serum (%) [11] | further results
99.4% | 76% | excellent resistance to transchelation | 30.8% | −3.3 ± 0.1 | 5.9 ± 1.6% | – | – | – | – | CC(=O)NC1CCCN([O-])C(=O)C=C(C)CCOC(=O)C(NC(=O)CCC(=O)[O-])CCCN([O-])C(=O)C=C(C)CCOC(=O)C(NC(=O)CCC(=O)[O-])CCCN([O-])C(=O)C=C(C)CCOC1=O.[89Zr+4] (mixture of isomers) [[^89Zr]Zr-FSC(succ)2AA] | – | – | – | –
– | – | – | – | – | – | – | – | – | high solubility in water | CC(=O)NC1CCCN(O)C(=O)/C=C(/C)CCOC(=O)C(NC(=O)CCC(=O)O)CCCN(O)C(=O)/C=C(/C)CCOC(=O)C(NC(=O)CCC(=O)O)CCCN(O)C(=O)/C=C(/C)CCOC1=O (stereo not drawn) [FSC(succ)2AA, Fusarinine C(succ)2AA] | – | – | – | –
– | – | – | – | – | – | – | – | – | high solubility in water | C/C1=C/C(=O)N(O)CCCC(NC(=O)CCC(=O)O)C(=O)OCC/C(C)=C\C(=O)N(O)CCCC(NC(=O)CCC(=O)O)C(=O)OCC/C(C)=C\C(=O)N(O)CCCC(NC(=O)CCC(=O)O)C(=O)OCC1 (stereo not drawn) [FSC(succ)3, Fusarinine C (succ)3] | – | – | – | –

Second part, the compound before the results:

Compound | Stability in Human Serum (%) [1] | intact complex ([2]; pH 6, 37 °C) | resistance to transchelation ([2]; pH 7, over seven days, 37 °C) | intact complex [3] | Log D [4] | Protein Binding (%) [5] | intact complex ([2]; pH 4, day 7, 37 °C) | bone uptake in the knee [6] | activity in blood [7] | solubility in water (Solubility in water) | Log D [8] | Protein Binding (%) [10] | Stability in Human Serum (%) [11] | further results
CC1=CC(=O)N([O-])CCCC(NC(=O)CCC(=O)[O-])C(=O)OCCC(C)=CC(=O)N([O-])CCCC(NC(=O)CCC(=O)O)C(=O)OCCC(C)=CC(=O)N([O-])CCCC(NC(=O)CCC(=O)[O-])C(=O)OCC1.[89Zr+4] (mixture of isomers) [[^89Zr]Zr-FSC(succ)3] | 99.5% | 97.8% | excellent resistance to transchelation | 62.1% | −3.5 ± 0.4 | 8.3 ± 3.5% | 87.9% | 0.026 % ID/cm^3 | 0.11 ± 0.08 % ID/g | – | – | – | – | activity in bone [7]: 0.24 ± 0.04 % ID/g; activity in heart [7]: 0.28 ± 0.08 % ID/g; activity in lung [7]: 0.21 ± 0.04 % ID/g; activity in muscle [7]: 0.25 ± 0.07 % ID/g
CC(=O)N([O-])CCCCCNC(=O)CCC(=O)N([O-])CCCCCNC(=O)CCC(=O)N([O-])CCCCCN.[89Zr+4] [[^89Zr]Zr-DFO, ^89Zr-desferrioxamine B] | – | – | – | – | – | – | – | – | – | – | −3.0 ± 0.1 | 8.7 ± 1.0% | 99.3% | acid dissociation (decomposition) ([2]; pH 4): totally decomposing on day 3; transchelation ([2]; pH 7, over seven days, 37 °C): ~60%; transchelation of 89Zr from [89Zr]Zr-DFO to FSC(succ)2AA or FSC(succ)3 [9]: Almost quantitative transchelation; also recorded: total transchelation
CC(=O)NC1CCCN([O-])C(=O)/C=C(/C)CCOC(=O)C(NC(C)=O)CCCN([O-])C(=O)/C=C(/C)CCOC(=O)C(NC(C)=O)CCCN([O-])C(=O)/C=C(/C)CCOC1=O.[89Zr+4] (stereo not drawn) [[^89Zr]Zr-TAFC, ^89Zr-triacetylfusarinine C, reference compound] | – | 94.4% | excellent resistance to transchelation | 39.8% | – | – | 70.3% | 0.016 % ID/cm^3 | 0.05 ± 0.01 % ID/g | – | −2.0 ± 0.0 | 6.8 ± 0.5% | 99.5% | –
